“And” between values parts separate entries of the source, which are not always exact repeats. Equal entries are not always repeated.
Key:
Src [1] = molecular target: Src; set-up: method as in PMID 28650650; settings: cited from earlier work
in vitro = settings: PAMPA, pH 7.4
Procedure: After being first dissolved in DMSO, the compounds were diluted 1:1 v/v using phosphate buffer (PBS 10 mM, pH 7.4). […] The gastrointestinal (GI) and blood–brain barrier (BBB) phospholipidic bilayers were mimicked by covering each well of the filter plate with either a 10%w/v CHCl3/dodecane brain polar lipid solution or a 1%w/v L-α-phosphatidylcholine solution (PC) in dodecane. After placing a DMSO/PBS 1:1v/v combination solution in the acceptor plate, the sandwich was gently shaken and incubated at room temperature for four hours. Samples were collected from the upper and bottom plates at the end time point, and the LC-UV/MS method was used for analysis. As previously reported, the apparent permeability (Papp cm/s × 10^−6) was quantified.

U87MG xenograft = tested on: U87MG xenograft; set-up: method as in PMID 28650650; settings: nude mice, in combination with radiotherapy; cited from earlier work
[2] = tested on: U251 3D-bioprinted structures; experiment: Viability assay in 3D-bioprinted U251 cell model (PrestoBlue); assay type: cell-based; settings: Homo sapiens, U-251, 72 h, bioprinted U251 3D model
Procedure: (§1) A solution of 2% alginate and 8% gelatin (bio-ink) made up the hydrogel utilized for bioprinting. After 15 min of UV light exposure, the powders were dissolved in sterile DPBS in a magnetic stirrer set at 50 °C with laminar flow. After being made, bioink was put in sterile syringes and kept at 4 °C until it was needed. Bioink had been equilibrated at 37 °C prior to the bioprinting process. After that, 2.7 mL of bioink was added to 20 × 10^6 cells that had been resuspended in 300 µL of growth media. Lastly, a disposable cartridge containing a cell/hydrogel suspension was equilibrated in a temperature-controlled printhead for 30 min at 29 °C. The BIO-X bioprinter (Cellink, Gothenburg, Sweden) was used to print in a 12-well plate at a speed of 5 mm/s and a dispensing pressure of 50 kPa, while the temperature was adjusted to 18 °C. Before adding culture media, three-dimensional constructs were crosslinked using CaCl2 for ten minutes and BaCl2 for three minutes. After 8 days, 3D structures, after evaluating cell viability, were treated for 72 h with SI306 and SI306-PD2 at selected concentrations and in different conditions: in complete DMEM high-glucose growth medium and DMEM-high glucose growth medium without FBS (w/o). Fiji ImageJ software (version 2.16.0/1.54p, https://imagej.net/software/fiji/downloads, accessed on 20 May 2025) was used to perform measurements of 3D models’ diameters on images acquired using phase contrast microscopy. A hemocytometer was used to set a scale for normalized measures and to convert real optic distance in pixels. At least five different optical fields were acquired, and the diameter was calculated for at least 100 different cell aggregates in each experimental point.
For the treatment of 2D cultures, U87 and U251 cell lines were initially seeded at a density of 2.5 × 10^4 cells/mL in a 24 multiwell with a complete DMEM high-glucose growth medium. […] Cell viability in 2D and 3D models was assessed using the cell-permeable resazurin-based solution PrestoBlue (Thermo Fisher, Waltham, MA, USA). After incubating the cells in a 1:10 ratio with the colorimetric reagent for two hours in the dark, the spectrophotometer readings at 570 and 600 nm were utilized as a relative indicator for cell viability.
Data were imported into Excel or GraphPad Prism software (version 6.01) and elaborated as the mean ± standard deviation (SD) of at least three independent experiments. […] The p value of the log-dose vs. response was calculated with a two-tailed Mann–Whitney test for unpaired data. The statistical significance between two series of measures, including stability and PAMPA (both GI and BBB) experiments, was calculated with the parametric Student t test, considering a significant p value lower than 0.05.

[3] = Stability/release in human plasma; settings: for Stability (% unmodified compound): 37 °C; for half-life: human, pH 7.4
Src [4] = experiment: Western blot of Src activation (pSrc/Src) in bioprinted U251 cells; assay type: cell-based, human; settings: bioprinted U251, 24 h, FBS-free DMEM; for Active form of Src, pSrc (Tyr416), vs. control: 1 or 10 µM, Western blot
Procedure: as §1
Cells were subjected to total protein extraction using a ready-to-use cell lysis buffer (Euroclone, Milan, Italy), supplemented by a Protease/Phosphatase Inhibitor Cocktail (Euroclone), diluted 1:100. Cell lysis was further facilitated by three cycles of sonication in an ultrasonic bath (JSP, Los Angeles, CA, USA). […]

CAS-1 GBM cells = tested on: CAS-1 GBM cells; set-up: method as in PMID 12564978; settings: CAS-1 cells; cited from earlier work
U87 GBM cells = tested on: U87 GBM cells; set-up: method as in PMID 12564978; settings: cited from earlier work

| Structure (SMILES) | Ki (Src [1]) [µM] | Papp at 4 h (in vitro) [×10⁻⁶ cm/s] | U87MG xenograft growth (U87MG xenograft) | IC50 ([2]; 10% FBS-DMEM) [µM] | IC50 ([2]; FBS-free DMEM (w/o)) [µM] | Stability (% unmodified compound) ([3]; time 0 h) [%] | Stability (% unmodified compound) ([3]; time 0.083 h) [%] | Stability (% unmodified compound) ([3]; time 0.25 h) [%] | Stability (% unmodified compound) ([3]; time 0.5 h) [%] | Stability (% unmodified compound) ([3]; time 1 h) [%] | Stability (% unmodified compound) ([3]; time 2 h) [%] | Stability (% unmodified compound) ([3]; time 4 h) [%] | Stability (% unmodified compound) ([3]; time 6 h) [%] | Stability (% unmodified compound) ([3]; time 24 h) | half-life [3] [h] | Active form of Src, pSrc (Tyr416), vs. control (Src [4]) | Activity in GBM cells (CAS-1 GBM cells) | Activity in GBM cells (U87 GBM cells) | pSrc/Src ratio normalized to control, prodrug vs. SI306 (Src [4]; 10 µM, densitometric analysis) |
| --- | --- | --- | --- | --- | --- | --- | --- | --- | --- | --- | --- | --- | --- | --- | --- | --- | --- | --- | --- |
| ClC(Cn1ncc2c(Nc3cccc(Br)c3)nc(SCCN3CCOCC3)nc21)c1ccccc1 (stereo not shown) [SI306, N-(3-bromophenyl)-1-(2-chloro-2-phenylethyl)-6-((2-morpholinoethyl)thio)-1H-pyrazolo[3,4-d]pyrimidin-4-amine] | 0.13 | 8.44 ± 1.03 | strongly arrested U87MG xenograft growth | 14.3 | 11.7 | 100.50 ± 2.32 | 96.64 ± 2.74 | 97.99 ± 2.48 | 98.95 ± 1.18 | 99.48 ± 1.70 | 99.92 ± 0.61 | 95.72 ± 0.76 | 95.54 ± 1.74 | 93.12% and 93.12 ± 1.70 % | > 100 | evident reduction in the active form of Src, starting from 1 µM | – | – | – |
| O=C(OCCOCCO)N(c1cccc(Br)c1)c1nc(SCCN2CCOCC2)nc2c1cnn2CC(Cl)c1ccccc1 (stereo not shown) [SI306-PD2, 2-(2-Hydroxyethoxy)ethyl (3-Bromophenyl)(1-(2-chloro-2-phenylethyl)-6-((2-morpholinoethyl)thio)-1H-pyrazolo[3,4-d]pyrimidin-4-yl)carbamate] | – | 19.5 ± 0.46 | – | 10 | 5.11 | 101.03 ± 1.58 | 90.12 ± 2.45 | 89.41 ± 2.37 | 89.57 ± 1.82 | – | 88.55 ± 1.18 | 71.86 ± 1.03 | 70.80 ± 3.25 | – | 10.9 | evident reduction in the active form of Src, starting from 1 µM | active | active | higher ability of the prodrug to inhibit the generation of phosphorylated Src than the SI306 compound |

— article PMC12195707, “Evaluation of Antitumoral Activity in a 3D Cell Model of a Src Inhibitor Prodrug for Glioblastoma Treatment” (Pharmaceutics, 2025)
